SMILES strings stand for the structures.

For one assay, the system named is BS125 cells. Description: MTT-based cell proliferation assay, BS125 cells. On the set-up: species or system human. The conditions noted are these: 10 μM CGP57380 with increasing amounts of rapamycin, 5 days after treatment. On the procedure:
(§1) Cell proliferation was assayed using MTT-based method 5 days after treatment. Growth in untreated cells was used as a reference. Data shown are the mean±SD values of at least three separate experiments.
(§2) Human brain tumor cell lines; BS125 and LN319 were derived from human patients. The “BS” series were generated at the University of Basel, Switzerland while the “LN” series was generated in Lausanne, Switzerland (Ishii et al., […], Brain Pathol. 9:469-79). These cells were cultured in DMEM supplemented with 10% FCS and standard antibiotics in an incubator at 37° C. and 5% CO2 humidified atmosphere. Transfection was accomplished using Lipofectamine (Invitrogen) according to the supplier's instructions. For overexpression experiments, previously reported MNK1-Flag construct (Knauf et al., 2001, Mol Cell Biol. 21:5500-11) were used. […]
(§3) For cell proliferation MTT-based assays in 96-well plates, about ˜5000 cells were seeded 1 day before drug treatment. […] The number of viable cells was measured using CellTiter 96® AQueous Non-Radioactive Cell Proliferation Assay (Promega) used according to manufacturer's instruction. In addition, cell growth was also monitored by counting cell number with a Vi-Cell XR cell viability analyzer (Beckman Coulter). […] Cells were counted every day over a 5-day period.

In a further assay the test system is LN319 cells. As to the kind of experiment: MTT-based cell proliferation assay, LN319 cells. On the set-up: species or system human. The conditions noted are these: 10 μM CGP57380 with increasing amounts of rapamycin, 5 days after treatment. On the procedure:
as §1, §2, §3

A further assay has as its system phosphorylated eIF4E. The conditions noted are these: cells transfected with Mnk2 (Mnk2a or Mnk2b) or Mnk1; cited from earlier work.
Another assay addresses human Mnk2 protein (Homo sapiens, UniProt Q9HBH9). The settings on record: described in WO 02/103361; cited from earlier work.

Sequence of human Mnk2 protein (Q9HBH9 whole entry): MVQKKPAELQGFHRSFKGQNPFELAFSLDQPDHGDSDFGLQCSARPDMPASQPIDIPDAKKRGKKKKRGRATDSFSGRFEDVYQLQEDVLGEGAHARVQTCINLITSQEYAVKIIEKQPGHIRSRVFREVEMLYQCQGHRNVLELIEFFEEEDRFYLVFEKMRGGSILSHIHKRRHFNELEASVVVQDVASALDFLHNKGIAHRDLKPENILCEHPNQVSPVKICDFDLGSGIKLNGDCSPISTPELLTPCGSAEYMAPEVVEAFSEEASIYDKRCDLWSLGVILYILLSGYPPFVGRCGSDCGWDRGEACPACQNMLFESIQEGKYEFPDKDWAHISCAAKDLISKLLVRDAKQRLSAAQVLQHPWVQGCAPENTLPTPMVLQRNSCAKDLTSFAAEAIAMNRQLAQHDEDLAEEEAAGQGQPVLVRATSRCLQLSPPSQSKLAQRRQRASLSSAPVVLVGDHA

For the molecule `Nc1ncnc2n[nH]c(Nc3ccc(F)cc3)c12` [CGP57380], the “inhibitory effect on cell proliferation” value in the assay with BS125 cells and in the assay with LN319 cells was “significantly increases the inhibitory effect on cell proliferation” throughout. The “reduction of phosphorylated eIF4E” value with phosphorylated eIF4E is listed as “strong reduction of phosphorylated eIF4E”.

Turning to `COC(=O)c1ccc(O)cc1` [4-hydroxybenzoic acid methyl ester], the “binding to human Mnk2 protein” value at human Mnk2 protein is listed as “binds the human Mnk2 protein”.

(Values after US20110280886A1, “TREATING CANCER BY MODULATING MNK” (UNIVERSITY HOSPITAL BASEL, priority 2008, published 2011).)
